Experimental data taken from patent US20230234942A1, “COMPOUNDS FOR TREATING HUNTINGTON'S DISEASE” (PTC Therapeutics, Inc., priority 2020, published 2023).

Test system: Endogenous Huntingtin Protein
Experiment: Endogenous Huntingtin Protein Assay (ELISA-based MSD electrochemiluminescence)
Format: cell-based
Method in brief: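 Endogenous huntingtin measured on MSD plates coated with MW1 (polyglutamine-expanded) or MAB2166 capture antibody; lysates bound overnight at 4 °C. Signal developed with #56565 rabbit monoclonal and goat anti-rabbit SULFO-TAG (0.25 µg/mL, 1 h RT each), electrochemiluminescence read on SI 6000.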

[1] = Table 2, MSD plates coated with MW1 (expanded polyglutamine) or MAB2166 capture antibody, "inactive" = result above the detection limit of the assay

SMILES | IC50 [1] [nM] | also measured
CCC1CN(c2ncc(-c3ccc(-c4cc(F)c5nn(C)cc5c4)cc3O)nn2)CCN1 (stereo not drawn) [Cpd 74, 2-[3-(3-ethylpiperazin-1-yl)-1,2,4-triazin-6-yl]-5-(7-fluoro-2-methyl-2H-indazol-5-yl)phenol] | 4.3 | 
Oc1cc(-c2cn[nH]c2)ccc1-c1cnc(N2CCN(C3CC3)CC2)nn1 [Cpd 63, 2-[3-(4-cyclopropylpiperazin-1-yl)-1,2,4-triazin-6-yl]-5-(1H-pyrazol-4-yl)phenol] |  | IC50 (nM) [1]: inactive
CC(C)[C@H]1CN(c2ncc(-c3ccc(-c4cc(F)c5nn(C)cc5c4)cc3O)nn2)CCN1 [Cpd 81, 5-(7-fluoro-2-methyl-2H-indazol-5-yl)-2-{3-[(3S)-3-(propan-2-yl)piperazin-1-yl]-1,2,4-triazin-6-yl}phenol] | 5.4 | 
CC1CN(c2ncc(-c3ccc(-c4cn[nH]c4)cc3O)nn2)CC(C)N1 (stereo not drawn) [WO/2019/191229 A1 Cpd 262, reference compound] |  | IC50 (Table 3, selected compounds from WO/2019/191229 A1, same MSD assay): 72.8 nM
CC(C)(O)C1CN(c2ncc(-c3ccc(-n4nccn4)cc3O)nn2)CCN1 (stereo not drawn) [Cpd 14, 2-{3-[3-(2-hydroxypropan-2-yl)piperazin-1-yl]-1,2,4-triazin-6-yl}-5-(2H-1,2,3-triazol-2-yl)phenol] | 12.2 | 
CC(C)[C@H]1CN(c2ncc(-c3ccc(-n4ccnc4)cc3O)nn2)CCN1 [Cpd 142, 5-(1H-imidazol-1-yl)-2-{3-[(3S)-3-(propan-2-yl)piperazin-1-yl]-1,2,4-triazin-6-yl}phenol] | 60.3 | 
CCC1CN(c2ncc(-c3ccc(-c4cc(F)c5nc(C)cn5c4)cc3O)nn2)CCN1 (stereo not drawn) [Cpd 68, 2-[3-(3-ethylpiperazin-1-yl)-1,2,4-triazin-6-yl]-5-(8-fluoro-2-methylimidazo[1,2-a]pyridin-6-yl)phenol] | 2.2 | 
Cc1nc2ncc(-c3ccc(-c4cnc(N5C[C@@H](C)N[C@@H](C)C5)nn4)c(O)c3)cn2n1 [Cpd 112, 2-{3-[(3R,5S)-3,5-dimethylpiperazin-1-yl]-1,2,4-triazin-6-yl}-5-(2-methyl[1,2,4]triazolo[1,5-a]pyrimidin-6-yl)phenol] | 34 | 

More lines, main results first:

IC50 [1] [nM] | SMILES | also measured
232 | C[C@H]1CN(c2ncc(-c3ccc(-c4cn[nH]c4)cc3O)nn2)C[C@@H](C2CC2)N1 [Cpd 224, 2-{3-[(3R,5S)-3-cyclopropyl-5-methylpiperazin-1-yl]-1,2,4-triazin-6-yl]-5-(1H-pyrazol-4-yl)phenol] | 
466 | CC(C)[C@H]1CN(c2ncc(-c3ccc(-c4cnccn4)cc3O)nn2)CCN1 [Cpd 144, 2-{3-[(3S)-3-(propan-2-yl)piperazin-1-yl]-1,2,4-triazin-6-yl}-5-(pyrazin-2-yl)phenol] | 
382 | CC(C)[C@H]1CN(c2ncc(-c3ccc(-c4cnn5ccccc45)cc3O)nn2)CCN1 [Cpd 244, 2-{3-[(3S)-3-(propan-2-yl)piperazin-1-yl]-1,2,4-triazin-6-yl}-5-(pyrazolo[1,5-a]pyridin-3-yl)phenol] | 
91.4 | Oc1cc(-c2cn[nH]c2)ccc1-c1cnc(N2CCN3CCCC3C2)nn1 (stereo not drawn) [Cpd 284, 2-[3-(hexahydropyrrolo[1,2-a]pyrazin-2(1H)-yl)-1,2,4-triazin-6-yl]-5-(1H-pyrazol-4-yl)phenol] | 
993 | CC(C)[C@H]1CN(c2ncc(-c3ccc(-c4cnnn4C)cc3O)nn2)CCN1 [Cpd 261, 5-(1-methyl-1H-1,2,3-triazol-5-yl)-2-{3-[(3S)-3-(propan-2-yl)piperazin-1-yl]-1,2,4-triazin-6-yl}phenol] | 
34.2 | Oc1cc(-c2ccncn2)ccc1-c1cnc(N2CCN[C@@H](C3CC3)C2)nn1 [Cpd 192, 2-{3-[(3S)-3-cyclopropylpiperazin-1-yl]-1,2,4-triazin-6-yl}-5-(pyrimidin-4-yl)phenol] | 
7.3 | CC(C)[C@H]1CN(c2ncc(-c3c(O)cc(-c4cn[nH]c4F)cc3F)nn2)CCN1 [Cpd 283, 3-fluoro-5-(5-fluoro-1H-pyrazol-4-yl)-2-{3-[(3S)-3-(propan-2-yl)piperazin-1-yl]-1,2,4-triazin-6-yl}phenol] | 
